In patent US7608599B2, “Antiviral phosphoramidates” (Roche Palo Alto LLC, priority 2005, dated 2009):

System: HCV replicon RNA replication (Renilla luciferase HCV replicon cells 2209-23)
Test: Renilla luciferase assay (HCV replicon)
Format: cell-based
Conditions: 72 h; Huh7-derived replicon cell line 2209-23, three days incubation, luciferase readout

In order of falling IC50:
1. CC(C)OC(=O)[C@H](C)NP(=O)(OC[C@@]1(N=[N+]=[N-])O[C@@H](n2ccc(N)nc2=O)[C@H](O)[C@@H]1O)Oc1ccccc1 (stereo partly drawn) [Compound I-35, (S)-2-{[(2R,3S,4R,5R)-5-(4-Amino-2-oxo-2H-pyrimidin-1-yl)-2-azido-3,4-dihydroxy-tetrahydro-furan-2-ylmethoxy]-phenoxy-phosphorylamino}-propionic acid isopropyl ester]  991 nM
2. CC(C)OC(=O)[C@H](C)NP(=O)(OC[C@@]1(N=[N+]=[N-])O[C@@H](n2ccc(=O)[nH]c2=O)[C@H](O)[C@@H]1O)Oc1ccccc1 (stereo partly drawn) [Compound I-14, (S)-2-{[(2R,3S,4R,5R)-2-Azido-5-(2,4-dioxo-3,4-dihydro-2H-pyrimidin-1-yl)-3,4-dihydroxy-tetrahydro-furan-2-ylmethoxy]-phenoxy-phosphorylamino}-propionic acid isopropyl ester]  864 nM
3. C[C@H](NP(=O)(OC[C@@]1(N=[N+]=[N-])O[C@@H](n2ccc(=O)[nH]c2=O)[C@H](O)[C@@H]1O)Oc1ccccc1)C(=O)OCc1ccccc1 (stereo partly drawn) [Compound I-13, (S)-2-{[(2R,3S,4R,5R)-2-Azido-5-(2,4-dioxo-3,4-dihydro-2H-pyrimidin-1-yl)-3,4-dihydroxy-tetrahydro-furan-2-ylmethoxy]-phenoxy-phosphorylamino}-propionic acid benzyl ester]  754 nM
4. CCC(C)OC(=O)[C@H](C)NP(=O)(OC[C@@]1(N=[N+]=[N-])O[C@@H](n2ccc(N)nc2=O)[C@H](O)[C@@H]1O)Oc1ccccc1 (stereo partly drawn) [Compound I-28, (S)-2-{[(2R,3S,4R,5R)-5-(4-Amino-2-oxo-2H-pyrimidin-1-yl)-2-azido-3,4-dihydroxy-tetrahydro-furan-2-ylmethoxy]-phenoxy-phosphorylamino}-propionic acid sec-butyl ester]  615 nM
5. CCOC(=O)[C@H](C)NP(=O)(OC[C@@]1(N=[N+]=[N-])O[C@@H](n2ccc(N)nc2=O)[C@H](O)[C@@H]1O)Oc1ccccc1 (stereo partly drawn) [Compound I-34, (S)-2-{[(2R,3S,4R,5R)-5-(4-Amino-2-oxo-2H-pyrimidin-1-yl)-2-azido-3,4-dihydroxy-tetrahydro-furan-2-ylmethoxy]-phenoxy-phosphorylamino}-propionic acid ethyl ester]  382 nM

System: HIV
Test: not given
Conditions: background, Ohrui et al.; cited from earlier work

For `C#CC1(CO)OC(n2ccc(N)nc2=O)C(O)C1O` (stereo not shown) [Compound 6a, 4-Ethynyl-cytarabine], the anti-HIV activity is listed as “good anti-HIV activity”.
For `C#C[C@]1(CO)O[C@@H](n2cc(C)c(=O)[nH]c2=O)[C@@H](O)[C@@H]1O` [Compound 6b], the anti-HIV activity is listed as “inactive”.
